This note sets out measurements from patent US20230002344A1, “NOVEL BENZOTHIOPHENE DERIVATIVES AND USE THEREOF FOR STIMULATING MITOCHONDRIAL TURNOVER” (NIBN, The National Institute For Biotechnology In The Negev …, priority 2019, published 2023).

Format in all cases: cell-based
Assay [1] relates to INS1 cells. As to the kind of experiment: Western blot against LC3 (autophagic flux). On the procedure:
The Z-score depicts the standard deviation from the neutral control (DMSO). In FIG. 3C: Mitochondrial mass in INS1 cells treated for 18 hours with either DMSO (control), Urolithin A (25 μM), SPB08007 (“SBP”) (25 μM) or MWP00839 (“MWP”) (11.5 μM) and then stained with Mitotracker green (200 nM). In FIG. 3D: SPB08007 and MWP00839 increase the number of mitochondria inside autolysosomes. INS1 cells expressing mCherry-GFP were exposed to SPB08007, MWP00839, and DMSO for 8 hours and then subjected to confocal microscopy. The area of red fluorescence in the taken images was determined. N=3+/−SEM pANOVA<0.05. FIG. 3E provides representative images. […] FIG. 3F provides the Western blot against LC3 in INS1 cells treated with the compounds in presence or absence of bafilomycin (+b) for the last 2 hours.
For orientation: A western blot detects proteins with antibodies after separation by electrophoresis.

The subject of assay [2] is INS1 cells. As to the kind of experiment: Lipotoxicity (palmitate) protection and recovery. The method, then:
In FIGS. 4A and 4B: INS1 cells were treated with either DMSO (control), SPB08007 (25 μM), or MWP00839 (25 μM) for 18 hours and were subjected to an Oxygen consumption rate (OCR) test. Viability test (using XTT staining) was determined after 24 hours exposure. […] In FIG. 4C: INS1 cells were treated with 400 μM palmitate (1:5 BSA palmitate) for 24 hours and were then let to recover in presence or absence of SPB08007 (“SBP”) for 18 hours. n=4 (paired t-test).
To address the potential beneficiary effect of mitochondrial clearance by SPB08007 (compound of structural Formula 6), we employed lipotoxicity, a model that we have previously reported to impair autophagy and mitochondrial clearance by alkalization of the lysosomes (Las, G., et al., Fatty acids suppress autophagic turnover in beta-cells. J Biol Chem, 2011.286 (49): p. 42534-44).

In assay [3] the test system is INS1 cells. Description: Western blot for mitochondrial proteins. The settings on record: 24 h. On the procedure:
INS1 cells expressing Mitotimer under EF-1 alpha promoter were treated for 18 hours with rapamycin (100 nM). […] FIGS. 2B and 2C show a Western blot for mitochondrial proteins upon treatment with rapamycin. Note that rapamycin increased mitochondrial mass.
(§1) Cell treatments and mitochondrial extraction. INS1 cells were treated with SBP08007 or MWP00839 25 uM for 24 h. Mitochondrial and cytosolic fractions from INS1 cells were performed by using the Mitochondria Isolation Kit for Cultured Cells (Pierce). INS1 cells were lysed in a hypotonic buffer (10 mM NaCl, 1.5 mM MgCl2, and 10 mM Tris.HCl, pH 7.5), and mitochondria were extracted in a Dounce homogenizer in mitochondrial buffer (1 mM EDTA, 210 mM mannitol, 70 mM sucrose, and 5 mM Tris.HCl, 7.5), followed by centrifugation at 1,300×g for 10 min at 4° C. The supernatant was further centrifuged at 17,000×g for 15 min at 4° C. to pellet the mitochondria. The crude mitochondrial fraction was resuspended for washing and centrifuged at 17,000×g for 15 min at 4° C. The pellets were collected as the mitochondrial fraction.
Western blot. Cell lysates were diluted in Laemmli sample buffer (100 mM Tris-HCl, 2% SDS, 10% glycerol, 0.1% bromophenol blue) containing 5% beta-mercaptoethanol. After heating at 95° C. for 5 min, proteins were separated by SDS-PAGE previously added of Stain Free reagent (BioRad), and transferred onto PVDF membranes. Membranes were blocked with 5% non-fat milk and detection of individual proteins was carried out by blotting with specific primary antibodies against ubiquitin (Calbiochem 1:1,000). Chemiluminescence detection using a secondary peroxidase-linked anti-rabbit (Calbiochem; 1:10,000) and a detection system from Pierce KLP (Rockford, Ill., USA) was performed. Stain free total protein labeling was imaged in Image Lab 6.0 Software (BioRad), which was used for quantification of the mitochondria and normalization to total protein staining.

Assay [4] relates to INS1 cells. As to the kind of experiment: Ubiquitinated mitochondrial proteins (anti-ubiquitin blot). The settings on record: 25 uM, 24 h. On the procedure:
INS1 cells were treated with SPB08007 (25 uM) or DMSO (0.1%) for 24 h. FIG. 17A: total mitochondrial protein isolated from 4×10^7 cells were loaded into SDS-PAGE gel previously added of Stain Free reagent, which was used to detect total protein bands in the BioRad Bio Lab gel reader. Protein was transferred into PVDF membrane, blotted to anti-ubiquitin. FIG. 17B: Quantification of total ubiquitin relative to total mitochondrial proteins. The quantification is expressed relative to DMSO, control. *p=0.001.
as §1, with “The crude mitochondrial fraction was resuspended for washing and centrifuged at 17,000×g for 15 min at 4° C. The pellets were collected as the mitochondrial fraction.” left out
Western blot. […] Stain free total protein labeling was imaged in Image Lab 6.0 Software (BioRad), which was used for quantification of the mitochondria and normalization to total protein staining.

For the next assay, the system named is mouse islets. As to the kind of experiment: Glucose stimulation insulin secretion assay. The conditions noted are these: 25 uM 24 h pretreatment. On the procedure: FIG. 12A show mouse islets were pre-incubated with SPB08007 (25 uM) or DMSO (0.1%) for 24 h. Islets were adapted to KRB media containing glucose 2 mM for 1 h, followed by media exchange containing glucose 2 mM (basal) or 12 mM (stimulated). After 1 h, Insulin released in the media was measured by ELISA. […] N=3. *p<0.05 vs. DMSO basal. ***p<0.001 vs. DMSO.
Islet isolation. Islets were isolated from DBA/2 mice. Briefly, pancreata of anesthetized mice were infused with collagenase (1 mg/ml, type XI, Sigma-Aldrich, Rehovot, Israel), excised, and incubated for 30 min at 37° C. The digested tissue was vortexed, filtered and washed in HBSS (Biological Industries) containing 0.5% BSA (Sigma). The pellet was resuspended in RPMI medium 1640 supplemented with 10% FCS, 50 units/ml penicillin, and 50 μg/ml streptomycin (all from Biological Industries). Islets were collected on a 100-μm cell strainer (BD, Falcon) and hand-picked using stereoscope (Zeiss, Oberkochen, Germany)
Glucose stimulation insulin secretion assay. After 24-hour pretreatment with SPB08007, 25 uM, islets were washed twice with PBS (Biological Industries, Bet-Haemek, Israel). For basal insulin secretion, the islets were incubated with Krebs-Ringer Bicarbonate (KRB) buffer supplemented with 0.5% BSA and 2 mM glucose for 30 min at 37 deg. C and 5% CO2. For stimulated insulin secretion, the buffer was replaced with KRB buffer supplemented with 0.5% BSA and 16 mM glucose and the islets were incubated for additional 60 min. Supernatant insulin content was measured by ELISA (Merck Millipore, Burlington, Mass.).

The structures appear in SMILES notation.

Turning to `CC(=O)N/C(=C\c1sc2ccccc2c1C)C(=O)O` [SPB08007], in the assay on INS1 cells [1], the “autophagy (LC3II, with or without bafilomycin)” value is given as “increase in autophagy”. The recovery after palmitate result with INS1 cells [2] (400 μM palmitate 24 hours, then 18 hours recovery with compound) is recorded as “slight but significant increase in recovery”. Moreover, the “protection from palmitate, co-treatment” value in the assay on INS1 cells [2] (co-treatment with palmitate for 18 hours) is recorded as “did not show any protection”. Moreover, the CI-NDFUB8 levels result with INS1 cells [3] (25 uM) is “unaffected”. Besides, in the assay on INS1 cells [3] (25 uM, relative to DMSO), the “SDHB (Complex II) protein level increase” value is listed as 2 fold and the “UQCRC2 (Complex III) protein level increase” value is reported as 1.5 fold. Moreover, in the assay with INS1 cells [3], the overall mitochondrial protein result was “reduces”. In the assay on INS1 cells [4], the “ubiquitination of mitochondrial proteins” value is reported as “less ubiquitinated”. Moreover, the “insulin secretion fold (glucose stimulated/basal)” value in the assay on mouse islets is given as “higher secretion fold”. For the same compound, the basal insulin secretion result with mouse islets (2 mM glucose) is “significantly reduced”. In addition, in the assay with mouse islets (16 mM of glucose), the glucose-stimulated insulin secretion entry is “maintaining the levels”.
